What was measured:
NQO1 protein = NQO1 protein (Homo sapiens, UniProt P15559); assay: NQO1 activity measurement (cytochrome C reduction); type: biochemical; conditions: 5 ng NQO1 protein, 200 μM NADH, 77 μM cytochrome C, 37° C., absorbance 550 nm for 10 minutes
Cells = assay: Measurement of lactate change amount within cells; type: cell-based; conditions: PCA extract of cells, lactate measured from supernatant (Megazyme, K-LATE)
Method in brief: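 Cells were extracted in 6% perchloric acid and centrifuged (13,000 rpm, 10 min), and the dried pellet was weighed. The supernatant was neutralised with 1 M KOH, brought up in 0.33 M potassium phosphate pH 7.5 and re-centrifuged. Lactate was measured in this supernatant with a commercial lactate kit.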

C57BLKS/J db/db mice [1] = assay: Weight loss effects and blood sugar in diabetic mice (db/db); type: in vivo; conditions: four weeks, vs 0.1% SLS controls
Procedure: (§1) 7 week-old C57BLKS/J db/db mice (chales river laboratories Japan, Inc) having genetic diabetic characteristics available from ORIENTBIO were prepared. Two mice were raised in each polycarbonate breeding cage (200 W×260 L×130H (mm), Three-shine) in which temperature was 22 to 24° C., relative humidity was 30 to 50%, illuminance was 150 to 300 lux, night and day were 12 hours, and exhaust was performed at 10 to 15 air changes per hour. As a feed, low fat diet (11.9 kcal % fat, 5053, Labdiet) manufactured by ORIENTBIO was used. The feed was contained in a feeder and free intake was allowed. As drinking water, water, which was contained in a 250 mL polycarbonate based bottle, purified through a filter and a sterilizer was used and free intake was allowed.
The compound according to Example 1 synthesized in the present invention was orally administered to three C57BLKS/J db/db mice in amounts of 40 mg/kg, 80 mg/kg, and 120 mg/kg, respectively, once every day for four weeks. For administration, a disposable syringe fitted with a sonde for oral administration was used and 10 ml/kg of the compound was orally administered into the stomach. As controls, three C57BLKS/J db/db mice were administered 0.1% SLS in an amount of 120 mg/kg in the same manner as described above. After administration, a time-dependent weight increase ratio, weight change, and intake amount were measured and results are illustrated in FIG. 7 below. In addition, blood sugar was measured and results are illustrated in FIG. 8 below.
Weights of the experimental animals were measured immediately before administration of a test material and six times a week from an administration initiation day to a test termination day. Increased total weights were calculated by subtracting weights measured on an experiment initiation day from weights measured one day before an experiment termination day. Food intake amounts were calculated by measuring feed supply amounts and remaining amounts twice a week from an initiation day of test material administration to a test termination day for each individual. Blood sugar was measured before an administration initiation day of the test material and once a week between an administration initiation day and a test termination day.

C57BLKS/J db/db mice [2] = assay: Glucose level and glycosylated hemoglobin (Hb1Ac) in fasted diabetic mice (db/db); type: in vivo; conditions: Exp. Ex. 5, FIG. 9: 10 week-old db/db mice, 40, 80, 120 mg/kg oral, fasted for 14 hours, vs 0.1% SLS controls
Procedure: as §1, with “10 week-old” for “7 week-old”, “mice” for “mice (chales river laboratories Japan, Inc)”, “genetic obesity” for “genetic diabetic”
The compound according to Example 1 synthesized in the present invention was orally administered to three C57BLKS/J db/db mice in amounts of 40 mg/kg, 80 mg/kg, and 120 mg/kg, respectively. For administration, a disposable syringe fitted with a sonde for oral administration was used and 10 ml/kg of the compound was orally administered into the stomach. As controls, three C57BLKS/J db/db mice were administered 0.1% SLS in an amount of 120 mg/kg in the same manner as described above. After administration, the mice were fasted for 14 hours and glucose levels and glycosylated hemoglobin thereof were measured. Results are illustrated in FIG. 9 below.

[3] = Exp. Ex. 4, FIG. 7: 7 week-old db/db mice, 40, 80, 120 mg/kg oral once every day

NQO1 protein, sequence (P15559 whole entry, species assumed): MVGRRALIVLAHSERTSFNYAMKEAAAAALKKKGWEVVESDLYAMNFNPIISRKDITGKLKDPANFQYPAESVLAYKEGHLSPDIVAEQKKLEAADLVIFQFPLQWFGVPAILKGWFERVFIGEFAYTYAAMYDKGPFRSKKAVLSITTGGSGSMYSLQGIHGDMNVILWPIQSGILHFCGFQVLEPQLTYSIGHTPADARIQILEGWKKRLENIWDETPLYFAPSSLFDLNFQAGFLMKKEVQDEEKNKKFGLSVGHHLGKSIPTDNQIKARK

CC(C)c1nc2c([nH]1)C(=O)C(=O)c1ccccc1-2 [Example 1, 2-isopropyl-1H-naphtho[2,1-d]imidazole-4,5-dione]
NQO1 activity (5 μM, [nmol cytochrome C reduced/min/μg protein]) (NQO1 protein): 177 nmol cytochrome C reduced/min/μg protein
Lactate change amount within cells (nmol/mg cell) (Cells): 6.1 nmol/mg cell
intake amount (C57BLKS/J db/db mice [1]; [3]): significantly decreased
weight change (C57BLKS/J db/db mice [1]; [3]): significantly decreased
weight increase ratio (C57BLKS/J db/db mice [1]; [3]): significantly decreased
blood sugar amount (C57BLKS/J db/db mice [1]; Exp. Ex. 4, FIG. 8: 7 week-old db/db mice, 40, 80, 120 mg/kg oral once every day, measured once a week): significantly decreased
glucose level (C57BLKS/J db/db mice [2]): significantly decreased
glycosylated hemoglobin (Hb1Ac) (C57BLKS/J db/db mice [2]): significantly decreased

Reference: patent US10766882B2, “1,2-naphthoquinone based derivative and method of preparing the same” (YUNGJIN PHARM. CO., LTD., priority 2013, dated 2020)
